Residues, ends and D or L forms follow the SMILES beside them.
Row | SMILES | melting point [°C]
1 | COCC(=O)NNC(=O)c1cc2cccc(N(C)S(=O)(=O)c3cccs3)c2[nH]1 | 148 to 149
2 | COCC(=O)OC1(C(=O)COC(C)=O)CCC2C3CC(C)C4=CC(=O)C=CC4(C)C3C(O)CC21C (configuration not stated) | 150 to 152
3 | Fc1ccc(Cn2c(NC3CCN(CCc4cn5ccccc5n4)CC3)nc3ccccc32)cc1 | 208
4 | O=P(O)(O)C1(P(=O)(O)O)CCCCN1 | 70
5 | CC(=O)OC1N=C(c2ccccc2Cl)c2nc(Cl)ccc2-n2c1n[nH]c2=O (configuration not stated) | 232 to 236
6 | CCC1C(C)=NN=C(c2ccc(OC)c(OC)c2)c2cc(OC)c(O)cc21 (configuration not stated) | 210 to 212
7 | COC(=O)COc1ccc(CC2SC(=O)N(C(c3ccccc3)(c3ccccc3)c3ccccc3)C2=O)cc1 (configuration not stated) | 158 to 162
8 | O=C(O)Cc1ccc(SCc2ccccc2C(=O)O)cc1 | 169
9 | O=C(O)Cc1cc(C(=O)c2ccccc2F)ccc1O | 102
10 | CC(C)N1CCN(Cc2ccc(Cl)nc2)C1=N[N+](=O)[O-] | 138 to 142
11 | COC(=O)c1ccc(CN([C@@H](CO)c2ccccc2)S(=O)(=O)c2ccc(Cl)cc2)cc1 | 104 to 106
12 | CCCCCCC(C)(C)c1cc(OCc2ccccc2)c(C2=C(C(C)(C)C#N)CCC(C)C2)c(OCc2ccccc2)c1 (configuration not stated) | 65 to 66
13 | CC(C)[C@H](NC(=O)c1ccccc1)C(=O)NCC(=O)O | 190 to 191
14 | CCC=C(c1ccccc1N1CCCCC1)C(C(N)=O)c1ccc(C(=O)OCC)cc1 (configuration not stated) | 115 to 117
15 | CC(C)COC(=O)c1ccc(OCC(=NO)c2ccc3c(c2)C(C)(C)CCC3(C)C)cc1O | 96
16 | CC(C)n1nc(-c2sc(NC(=O)c3ccccc3C(F)(F)F)nc2-c2ccccc2)ccc1=O | 219 to 220
17 | O=C(NC1N=C(c2ccccc2F)c2ccccc2NC1=O)c1ccc[nH]1 (racemic) | 271 to 274
18 | CCS(=O)(=O)c1ccc(-c2cc(C(F)(F)F)ccc2OCC(=O)O)cc1C(F)(F)F | 174 to 175
19 | Cc1ncc(-c2ccc(Cl)cc2)cc1C(=O)OC(C)(C)C | 70 to 72
20 | CCc1nn(C2CCCC2)c2cc(C(=O)Nc3ccc(C(=O)OC)cc3)ccc12 | 129 to 132
21 | COc1cc(Cc2cnc(N)nc2N)c2c(c1OC)OC(C)CC2O (configuration not stated) | 201 to 203
22 | COc1ccccc1NC(=O)Nc1ccc(CC(=O)O)cc1C | 260 to 264
23 | COC(=O)CC(C(=O)c1ccc(SC)cc1)c1ccccc1 (configuration not stated) | 82.4 to 83
24 | CC(SC1COC(C2([N+](=O)[O-])C=CC(C(=O)Nc3ccccc3)=CC2)OC1)C(O)(Cn1cncn1)c1ccc(F)cc1F (configuration not stated) | 189
25 | Cc1c(-c2ccccc2)on(CC(O)CCl)c1=O (configuration not stated) | 82 to 83

Row | SMILES | melting point [°C]
26 | CCONC(=O)Cc1ccc2cc(OC)ccc2c1 | 196 to 197
27 | OC(CN1CCNC1=S)c1cccc(F)c1 (configuration not stated) | 116
28 | CCCCc1c2c(nn1CCC)c(N)nc1ccccc12 | 164 to 166
29 | COP(=O)(Cc1cc(C)c(CP(=O)(OC)OC)cc1C)OC | 121 to 123
30 | Cn1cccc1C=CC(=O)NCCCCCC(=O)NO | 103 to 105
31 | O=C1c2ccccc2C(=O)C1(c1ccccc1)N1CCC(c2noc3cc(F)ccc23)CC1 | 149 to 150
32 | O=Cc1ccc(OC2CCCC2)c(O)c1Br | 107 to 109
33 | CCCCCCCCCNC(=O)CCCC | 29 to 31
34 | O=C(NCCN1CCN(c2cc(C(F)(F)F)ccn2)CC1)c1ccc(F)cc1 | 159
35 | Cn1cc(C(=O)NCc2ccc(Cl)cc2)c(=O)c2cc(CN3CCOCC3)cc(C#CCn3cnc(Cl)c3Cl)c21 | 178 to 181
36 | CCCCCCCCOCCCCC(=O)O | < 30
37 | CN1CC=C(c2c[nH]c3ccc(C4CN=CS4)cc23)CC1 (configuration not stated) | 260 to 263
38 | O=C(c1ccc(F)cc1)c1cccc(C(=O)c2ccc(F)cc2)c1 | 178
39 | CCc1nn(C2CCCC2)c(NC(=O)c2ccnc3ccccc23)c1C#N | 156 to 161
40 | CN1CCN(c2nc3sc4c(NCCCn5ccnc5)ncnc4c3c3c2COC(C)(C)C3)CC1 | 227
41 | NC(=S)Nc1ccc2ccccc2c1 | 190 to 192
42 | O=C(Nc1ccc2c(c1)S(=O)(=O)NC1CCCN21)c1ccccc1 (configuration not stated) | 293
43 | O=C(O)Cc1cc(Br)ccc1OCCCc1ccccc1 | 79.5 to 81
44 | CC1CC(=O)NN=C1c1ccc(C(=O)OC2CCCC2)cc1 (configuration not stated) | 120 to 122
45 | O=C(O)CCCCCC[C@H]1CC[C@@H](O)CC1 | 75 to 79
46 | CCCc1nnc(/C=C/c2cn(-c3ccccc3)nc2OCc2ccc(OCc3nc(-c4ccco4)oc3C)c(OC)c2)o1 | 165 to 166
47 | CC(=O)SCCC(=O)N1N=C(c2ccc(C(F)(F)F)cc2)SC1C(=O)OCc1ccccc1 (configuration not stated) | 120 to 121
48 | Cc1cn(-c2ccc(C(=O)N3Cc4cccn4Cc4ccccc43)cc2)cn1 | 140 to 145
49 | CCC12CCC3=C(CCc4cc(OC(C)=O)ccc43)C1=CCC2=O (configuration not stated) | 122 to 124
50 | CSc1sc(C(N)=O)c2c1-c1sc(-c3ccccc3)cc1CC2 | 192 to 193

Row | SMILES | melting point [°C]
51 | CCCc1c(OCC2(Sc3ccc(C(=O)CCC(=O)O)cc3)CCCCC2O)ccc(C(C)=O)c1O (configuration not stated) | 65 to 67
52 | COc1cscc1NC=O | 95 to 97
53 | Cc1cccc(-c2n[nH]cc2-c2ccnc(-c3ccc(C#N)cc3)c2)n1 | 198
54 | CCCCc1nn2c(-c3ccccc3)c(C)nc2n1Cc1ccc(-c2ccccc2-c2nnn[nH]2)cc1 | > 108
55 | O=C(C=Cc1cc(O)c(O)cc1O)OCCc1ccccc1 | 146 to 149
56 | COc1cc2c(cc1OC)C(CNC=O)c1ccccc1CC2 (configuration not stated) | 118 to 119
57 | c1ccc(C(OC2CCN(CCOc3ccc4nncn4n3)CC2)c2ccccc2)cc1 | 149 to 150
58 | CN1CCCCC(C2=CC(=O)CCC2)C1=O (configuration not stated) | 109 to 110
59 | CC1(C)Oc2ccc(C#N)cc2[C@@H](Nc2cc(Cl)ncn2)[C@@H]1O (relative stereo) | 204 to 208
60 | S=C=Nc1ccc2nc(Oc3ccccc3)sc2c1 | 118 to 119
61 | Cn1nc(Oc2ccc([N+](=O)[O-])c([N+](=O)[O-])c2)c(Cl)c1C(F)(F)F | 139 to 140
62 | CCC(C)(C)NC(Nc1ccc2c(c1)OCO2)=C(C#N)C(=O)C(C)(C)C | 161 to 165
63 | CCC(C)Nc1c([N+](=O)[O-])cc(C(F)(F)F)c(C)c1[N+](=O)[O-] (configuration not stated) | 38 to 39
64 | CCCC1CC(=O)c2c(NC(=O)C(=O)O)ccc(C)c21 (configuration not stated) | 157 to 158
65 | CNC(=O)c1cccc(NC(=O)Cc2cccc(Cl)c2)c1 | 165 to 166
66 | CCOC(=O)c1ccc(/C=C(\CCCc2ccc(OC)cc2)Cn2ccnc2)cc1 | 92 to 94
67 | CN1CCN(C(=O)Nc2ccccc2C=Cc2cc(C(C)(C)C)c(O)c(C(C)(C)C)c2)CC1 | 192 to 194
68 | COc1cc(OC)c2c(=O)cc(-c3ccc(N(C)C)cc3)oc2c1C1=CCN(C)CC1 | 148 to 150
69 | CCOC(=O)[C@H](Cc1ccc(-c2c(OC)cc(COS(C)(=O)=O)cc2OC)cc1)NC(=O)c1c(F)cccc1Cl | 104 to 107
70 | CCCCNC(=O)Nc1ccc(S(C)=O)cc1C(=O)NCC1CCN(C(c2ccccc2)c2ccccc2)CC1 (configuration not stated) | 178 to 179
71 | CC(=O)OC(c1cc2n(n1)CCOC2=O)C1(Br)C(=O)N2C(C(=O)OCc3ccc([N+](=O)[O-])cc3)=CSC21 (configuration not stated) | 107 to 110
72 | FC(F)(F)c1nncn1-c1ccccc1 | 80
73 | O=[N+]([O-])c1cc(Cl)c(C=CN2CCN(c3nsc4ccccc34)CC2)cc1Cl | 194 to 195
74 | COc1cc(OC)nc(NC(=O)NS(=O)(=O)c2c(C(F)F)nsc2OCC(F)(F)F)n1 | 200 to 202
75 | C#CCn1nc(-c2ccc(F)cc2)c(-c2ccc(S(C)(=O)=O)cc2)cc1=O | 168 to 169

Row | SMILES | melting point [°C]
76 | COc1ccccc1N1CCN(CCNc2ccccc2C(C)=O)CC1 | 92 to 94
77 | Cc1c(C)c2c(c(C)c1O)CCC(C)(CNCCc1ccc(N=C(N)c3cccs3)cc1)O2 (configuration not stated) | > 230
78 | CN(CC(O)C(Cc1ccccc1)NC(=O)OC(C)(C)C)CC(O)C(Cc1ccccc1)NC(=O)OC(C)(C)C (configuration not stated) | 62 to 70
79 | CCOC(=O)c1sc(N)nc1C(C)(C)C | 99 to 100
80 | CC(=O)OCc1csc(Nc2ccc(Br)cn2)n1 | 201 to 202
81 | NC(=O)CCC(N)C(=O)NCC(=O)NCC(=O)NC(CO)C(=O)NC(CC(N)=O)C(=O)NC(Cc1ccccc1)C(N)=O (configuration not stated) (H-QGGSNF-NH2; configuration not given here) | 202 to 204
82 | CSC1(C)C(=O)Nc2c(C(=O)c3ccccc3)cccc21 (configuration not stated) | 135 to 137
83 | Fc1ccc(-c2ccco2)cc1 | 84 to 86
84 | O=C(NNC(=O)c1occ(-c2ccccc2)c1-c1ccccc1)c1ccc(O)c([N+](=O)[O-])c1 | 214 to 217
85 | CC(=O)N(Cc1cccnc1)c1ccc(Cl)cc1 | 64 to 65
86 | CSc1ccc(C=CC#N)cc1 | 79
87 | CCCSc1cc(-c2ccc(C(F)(F)F)cc2)c(F)cc1[N+](=O)[O-] | 57 to 59
88 | O=C(O)CCc1cn(Cc2ccc(OCc3csc(-c4ccccc4)n3)cc2)nc1-c1cccs1 | 133 to 134
89 | CS(=O)(=O)Nc1cc(-c2ncc(C(F)(F)F)cc2Cl)ccc1Cl | 133 to 134
90 | CCCc1c(C=O)ncn1S(=O)(=O)N(C)C | 57 to 58
91 | c1ccc(Cn2cnc(-c3cnc(-c4ccccc4)nc3)c2)cc1 | 195
92 | Oc1ccc(O)c(C(F)(F)F)c1 | 114 to 115
93 | CN1C(=O)NC(c2ccccc2)c2cc3c(cc21)OCO3 (configuration not stated) | 228 to 230
94 | CCCCc1nn2cccc(C(=O)OCC)c2c1C(=O)c1ccc(Br)cc1 | < 50
95 | COC(=O)CCC#CCCC(=O)O | 71.5 to 72
96 | Nc1nc(-c2cc(Cl)ccc2Cl)nc(N2CCC2)n1 | 207 to 208
97 | CN(C)C(=S)Oc1ccc(C(=O)c2ccc([N+](=O)[O-])cc2)cc1 | 168
